The text below walks through data of patent US20150056702A1, “METHOD AND KIT FOR CULTURING STEM CELLS” (China Medical University, priority 2013, published 2015).

Holding throughout (assay type): cell-based, mouse
Experiment [1] has as its system SSEA1. Kind of experiment: Immunofluorescence staining, SSEA1 in ES cells. To be noted: for SSEA1 expression level: ES cells, 72 hours, control group = 100%. An excerpt: (§1) Nanog and SSEA1 are also marker proteins of stem cells, and their expression levels could be measured by immunofluorescence staining to further confirm whether BP can effectively maintain the self-renewal and pluripotency of stem cells.
(§2) An experimental group medium (BP5, BP10, BP20 or BP40), a LIF-containing medium (without BP), and a control group medium (without BP) were used respectively in a 6-well culture dish which comprises a slide in each well to culture ES cells with an initial density of 1×10^4 per well for 72 hours. The medium was removed and the cells were washed with PBS. Next, PBS was removed, and then 4% paraformaldehyde was added to perform the fixation at room temperature for 10 minutes. Next, paraformaldehyde was removed, and then slides were washed with 0.1% Tween-20/1X PBS three times for 10 minutes each time. The 0.3% Tween-20/1X PBS was added and held at room temperature for 30 minutes to penetrate the cell membrane to benefit the dye entry. After the slides were washed three times with 0.1% Tween-20, 5% FBS/1×PBS was added to perform a blocking reaction at room temperature for 2 hours, and then reacting with the primary antibody [anti-Nanog (Novus) or anti-SSEA1 (Millipore)] at a dilution of 1:100 at room temperature overnight. Slides were then washed 5 times with 0.1% Tween-20, then reacting with the secondary antibody [FITC-conjugated anti-mouse IgG or TRITC-conjugated anti-rabbit IgG (Sigma-Aldrich)] at a dilution of 1:500. After washed with 0.1% Tween-20 for 10 minutes, slides were mounted with the DAPI-containing UltraCruz™ Mounting medium and observed using an inverted fluorescent microscope.

The test system of experiment [2] is SSEA1. In words: Immunofluorescence staining, SSEA1 in iPS cells. Conditions: 72 hours, control group = 100%.
Excerpt: as §1, §2
(§3) By using the above culture conditions, an experimental group medium (BP5, BP10, BP20 or BP40), a LIF-containing medium (without BP), and a control group medium (without BP) were used respectively to culture iPS cells. The staining of iPS cells was performed by using the steps described above.

Experiment [3] concerns Nanog. Kind of experiment: Immunofluorescence staining, Nanog in ES cells. Conditions: for Nanog expression level: ES cells, 72 hours, control group = 100%.
Excerpt: as §1, §2

Experiment [4] has as its system Nanog. In words: Immunofluorescence staining, Nanog in iPS cells. Conditions: 72 hours, control group = 100%.
Excerpt: as §1, §2, §3

The subject of a further experiment is Jak2. Kind of experiment: Real-time PCR, Jak2 mRNA in ES cells. To be noted: for Jak2 Gene expression level: ES cells, control group = 100%. The procedure: (§4) An experimental group medium (BP5, BP10, BP20 or BP40) and a control group medium (without BP) were added respectively to perform the following steps. ES cells were cultured with an initial density of 1×10^4 per well in a 6-well culture dish. The medium was removed until the cells growth to be about 70 to 80% confluence, and then 1 ml TRIzol (Invitrogen) was added into each well. The cells were incubated for 5 minutes, and then was scraped by a spatula and placed into a 1.5 ml microtube to be lysed adequately. Chloroform (0.2 ml) was added into the microtubes. The mixture was shaken up and down for 15 seconds, and then incubated at room temperature for 2 to 3 minutes. Thereafter, the mixture was centrifuged at 12000 rpm at 4° C. for 15 minutes, and the supernatant was removed into another 1.5 ml microtube and isopropanol (0.5 ml) was added into the microtube with well mixing. The mixture was incubated at room temperature for 10 minutes and then centrifuged at 12000 rpm at 4° C. for 10 minutes. The supernatant was then removed. One ml of 70% ethanol containing DEPC.H2O was used to wash the remaining sediment. The sediment was centrifuged at 7500 rpm at 4° C. for 5 minutes. The supernatant was removed. The sediment was dried by vacuum suction. The dried samples were dissolved in about 0.01 to 0.02 ml of DEPC.H2O to obtain the experimental group RNA and control group RNA. Both groups were stored at −80° C.
(§5) The OD value of RNA samples in both groups obtained from the above Experiment I were measured at a wavelength of 260 nm (RNA: OD260=1 for a 40 μg/mL solution). Each RNA sample (2 μl) was added with RNA-free water until the volume of the sample reached 10 μl. Two μl oligo (dT) (100 μg/ml) was added into each sample, and the samples were incubated at 65° C. for 5 minutes. Then, the samples were immediately placed on ice and spun down. Next, 6.5 μl of a reaction solution [4 μl of 5× buffer+1 μl of 0.1 M DTT+1 μl of RNase out+0.5 μl of SSIII (Invitrogen)] was added into each of the samples, and the samples were incubated at 50° C. for about 30 to 60 minutes and at 75° C. for 15 minutes to obtain the experimental group cDNA and control group cDNA. Both groups were stored at −80° C.
(§6) This experiment was used to detect the expression levels of ES cell-related genes, i.e., Oct4 and Sox2, etc. First, 4 μl of the experimental group cDNA or control group cDNA was added into each well of a 96-well micro-reaction plate, and mixed with 6 μl of a reaction solution [0.5 μl of 6 μM forward primer+0.5 μl of 6 μM reverse primer+5 μl of SYBR Green PCR Master mix (Roche)], wherein the SYBR Green PCR Master mix included the reagents needed for Q-PCR, such as dNTPs, MgCl, Taq DNA polymerase and 2×SYBR® Green I solution. […] The cycle threshold (CT) values were measured. […]

In another experiment the test system is EPO. In words: Real-time PCR, cytokine gene EPO in ES cells. Conditions: for EPO mRNA expression level: ES cells, control group = 100%. Here is the method:
as §4, §5, §6
On the technique in general: In qPCR the cycle at which signal appears reflects the starting amount.

The test system of another experiment is IL11. In words: Real-time PCR, cytokine gene IL11 in ES cells. Conditions: for IL11 mRNA expression level: ES cells, control group = 100%. Here is the method: as §4, §5, §6
The mark [5] stands for this setting: BP10 medium (about 10 μg BP/ml).
Where [6] appears, read: BP20 medium (about 20 μg BP/ml).
[7] abbreviates: BP40 medium (about 40 μg BP/ml).
The mark [8] stands for this setting: BP-containing ES cell medium vs control group (without BP), result in words.
[9] abbreviates: BP-containing ES cell medium, result in words.
Setting [10] is: LIF-containing medium (LIF 4 ng/ml, without BP).
The mark [11] stands for this setting: LIF-containing medium (LIF 4 ng/ml).

As to `CCCC=C1OC(=O)c2ccccc21` [BP, n-butylidenephthalide], the SSEA1 expression level in the experiment on SSEA1 [1] (BP5 medium (about 5 μg BP/ml)) is reported as 76.27%; with SSEA1 [1] (setting [5]), 202.82%; with SSEA1 [1] (setting [6]), 172.12%; in the experiment on SSEA1 [1] (setting [7]), 145.71%; in the experiment with SSEA1 [2] (BP5 medium (about 5 μg BP/ml)), 117%; with SSEA1 [2] (setting [5]), 101%. For the same molecule, the SSEA1 expression level in the experiment on SSEA1 [2] (setting [6]) amounted to 94%; in the experiment with SSEA1 [2] (setting [7]), 137%. The “expression level of SSEA1” value in the experiment with SSEA1 [1] (setting [8]) is recorded as “higher”. The Nanog expression level in the experiment on Nanog [3] (BP5 medium (about 5 μg BP/ml)) is listed as 113.22%; in the experiment with Nanog [3] (setting [5]), 183.28%; with Nanog [3] (setting [6]) it was 213.8%; with Nanog [3] (setting [7]), 212.83%; with Nanog [4] (BP5 medium (about 5 μg BP/ml)) it was 142%; in the experiment on Nanog [4] (setting [5]) it was 305%. The Nanog expression level came out at 358% in the experiment with Nanog [4] (setting [6]) and 442% in the experiment on Nanog [4] (setting [7]). Further, the “expression level of Nanog” value in the experiment on Nanog [3] (setting [8]) was “higher”. Moreover, the “Jak2 Gene expression level” value in the experiment on Jak2 (BP5 medium (about 5 μg BP/ml)) stood at 180%; in the experiment on Jak2 (setting [5]) it was 211%. Further, the “mRNA expression level of Jak2” value with Jak2 (BP-containing ES cell medium (BP5 or BP10), result in words) is “significantly up-regulated”. The “EPO mRNA expression level” value in the experiment with EPO (BP5 medium (about 5 μg BP/ml)) stood at 97%; in the experiment on EPO (setting [5]), 196%. In the experiment on EPO (setting [9]), the “mRNA expression level of EPO” value is “significantly up-regulated”. The “IL11 mRNA expression level” value was found to be 93% with IL11 (BP5 medium (about 5 μg BP/ml)) and 191% in the experiment with IL11 (setting [5]). Moreover, the “mRNA expression level of IL-11” value with IL11 (setting [9]) is “significantly up-regulated”.

Turning to “LIF: multifunctional cell factor used to maintain pluripotency of stem cells; LIF-containing medium (4 ng/ml, without BP) as comparison”, the results for the SSEA1 expression level in the experiment on SSEA1 [1] (setting [10]) and in the experiment with SSEA1 [2] (setting [10]) were 242.01% and 230%, respectively. The Nanog expression level is listed as 204.46% in the experiment on Nanog [3] (setting [10]) and 386% in the experiment with Nanog [4] (setting [10]). In the experiment on Jak2 (setting [10]), the “Jak2 Gene expression level” value worked out at 159%. For the same molecule, in the experiment on EPO (setting [11]), the “EPO mRNA expression level” value is recorded as 91%. The “IL11 mRNA expression level” value with IL11 (setting [11]) turned out to be 99%.
